This note sets out measurements from publication PMC9177823 (Journal of molecular biology, 2022).

The test has as its target MelBSt; Salmonella typhimurium melibiose permease (Salmonella enterica, UniProt P30878). In words: CD thermal denaturation at […] nm, purified in DDM. The test is classed as binding. To be noted: 50 mM melibiose, 100 mM LiCl, 20 mM NaPi pH 7.5, 10% glycerol, 0.01% DDM.

Sequence of MelBSt; Salmonella typhimurium melibiose permease (P30878 whole entry): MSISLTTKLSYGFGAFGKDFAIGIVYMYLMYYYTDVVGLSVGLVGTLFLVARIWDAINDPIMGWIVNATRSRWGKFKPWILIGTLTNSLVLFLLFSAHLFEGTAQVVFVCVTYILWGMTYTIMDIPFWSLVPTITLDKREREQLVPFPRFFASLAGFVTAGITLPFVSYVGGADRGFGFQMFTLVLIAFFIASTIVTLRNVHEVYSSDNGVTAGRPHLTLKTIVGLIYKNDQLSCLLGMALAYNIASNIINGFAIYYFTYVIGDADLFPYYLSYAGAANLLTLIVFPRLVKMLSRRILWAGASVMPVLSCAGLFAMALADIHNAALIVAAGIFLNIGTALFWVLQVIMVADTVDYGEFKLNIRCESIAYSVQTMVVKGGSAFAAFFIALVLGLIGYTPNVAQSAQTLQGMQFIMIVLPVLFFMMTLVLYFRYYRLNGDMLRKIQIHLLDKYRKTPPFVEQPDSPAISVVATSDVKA

In turn, `OC[C@H]1O[C@H](OC[C@H]2OC(O)[C@H](O)[C@@H](O)[C@@H]2O)[C@H](O)[C@@H](O)[C@H]1O` (stereo partly shown) [melibiose] had a WT of 63.87 ± 0.04 °C.
